Target: T1, BK channels (Homo sapiens, UniProt Q12791)
T1 construct: expressed in transfected cells; host or cells: Xenopus laevis oocytes
Experiment: BK channel opening activity, two-electrode voltage clamp in Xenopus laevis oocytes
Format: cell-based
Procedure: In this example the BK channel opening activity of a phenylcarbamoyl-methyl-indole derivative for use according to the invention, i.e. 5-Chloro-3-[(3-chloro-phenylcarbamoyl)-methyl]-1H-indole-2-carboxylic acid (herein designated Compound A), is determined using BK channels heterologously expressed in Xenopus laevis oocytes.
The electrical current through the BK channel is measured conventional two-electrode voltage clamp. BK current is activated by repeated step protocols. In brief, this protocol goes from a resting membrane potential of −40 mV lasting for 5 s to a depolarised step to +20 mV lasting for 1 s. The protocol was repeated continuously.
Having reached stable current level, Compound A (10 μM), was added. A marked increase in the current activated by depolarisation could be observed. The BK current activity returned to baseline after approximately 30-60 seconds of wash. In summary BK current was increased by 92±23% in the presence of 10 μM of compound A (n=3, SD value).

T1 sequence (Q12791 whole entry): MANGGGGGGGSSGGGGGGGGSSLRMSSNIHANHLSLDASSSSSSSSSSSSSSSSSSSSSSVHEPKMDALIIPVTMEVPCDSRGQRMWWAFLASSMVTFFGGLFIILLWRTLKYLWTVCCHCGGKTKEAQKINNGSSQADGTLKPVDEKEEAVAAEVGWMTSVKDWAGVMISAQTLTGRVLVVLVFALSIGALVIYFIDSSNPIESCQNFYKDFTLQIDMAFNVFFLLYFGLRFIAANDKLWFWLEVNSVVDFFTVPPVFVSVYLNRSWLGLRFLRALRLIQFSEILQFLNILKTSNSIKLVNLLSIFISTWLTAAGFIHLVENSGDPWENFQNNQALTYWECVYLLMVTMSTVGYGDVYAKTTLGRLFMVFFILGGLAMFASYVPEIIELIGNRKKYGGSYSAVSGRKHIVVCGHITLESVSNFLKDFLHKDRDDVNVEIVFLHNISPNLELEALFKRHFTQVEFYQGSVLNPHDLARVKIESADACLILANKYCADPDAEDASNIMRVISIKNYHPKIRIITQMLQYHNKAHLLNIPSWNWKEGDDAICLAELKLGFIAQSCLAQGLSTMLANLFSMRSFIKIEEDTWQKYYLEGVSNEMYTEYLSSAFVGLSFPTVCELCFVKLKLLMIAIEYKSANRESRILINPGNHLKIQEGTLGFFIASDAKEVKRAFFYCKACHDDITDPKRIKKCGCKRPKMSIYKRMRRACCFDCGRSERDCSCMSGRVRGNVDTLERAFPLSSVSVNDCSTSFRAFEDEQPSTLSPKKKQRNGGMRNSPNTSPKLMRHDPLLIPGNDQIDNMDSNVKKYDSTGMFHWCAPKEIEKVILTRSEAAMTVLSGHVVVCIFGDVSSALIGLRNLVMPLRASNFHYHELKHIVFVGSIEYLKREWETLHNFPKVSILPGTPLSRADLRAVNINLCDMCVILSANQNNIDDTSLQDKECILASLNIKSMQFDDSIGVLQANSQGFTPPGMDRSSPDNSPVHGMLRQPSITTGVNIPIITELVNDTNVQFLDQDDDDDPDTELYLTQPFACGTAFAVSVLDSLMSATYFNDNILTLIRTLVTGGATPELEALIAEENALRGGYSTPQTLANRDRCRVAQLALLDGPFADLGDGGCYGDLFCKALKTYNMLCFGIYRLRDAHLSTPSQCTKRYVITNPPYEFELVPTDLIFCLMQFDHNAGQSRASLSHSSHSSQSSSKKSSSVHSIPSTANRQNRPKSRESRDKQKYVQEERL

BK current increase (10 μM compound, BK channels heterologously expressed in Xenopus laevis oocytes, depolarising step to +20 mV, n=3, SD value): 92±23% | BK current activity return to baseline after wash (wash after 10 μM compound, Xenopus laevis oocytes): 30 to 60 s
SMILES: O=C(Cc1c(C(=O)O)[nH]c2ccc(Cl)cc12)Nc1cccc(Cl)c1 [Compound A, 5-Chloro-3-[(3-chloro-phenylcarbamoyl)-methyl]-1H-indole-2-carboxylic acid]

Reference: patent US20100099732A1, “MEDICAMENTS USEFUL AS POTASSIUM CHANNEL MODULATORS” (NeuroSearch A/S, priority 2007, published 2010)
